PMC7714071, “Interaction of amyloid beta with humanin and acetylcholinesterase is modulated by ATP” (FEBS Open Bio, 2020)

Assays:
Aβ40 = settings: HN and AChE compared; cited from earlier work
Excerpt: Amino acid residues involved in direct interactions between HN and Aβ40 were identified previously by molecular modeling. The specific epitopes at the binding interface between HN and Aβ40 were identified, by proteolytic epitope excision and extraction in addition to affinity–mass spectrometric data analysis, to be HN (5–15) and Aβ (17–28). […] Inhibiting the 17–28 region of Aβ reduced aggregation of the neurotoxic amyloid fibrils and related cytotoxicity in SH‐SY5Y, a human neuroblastoma cell ... || Humanin has been previously reported to bind amino acid residues 17–28 of Aβ (Fig. 1). AChE is also known to bind Aβ (1–16) and the Aβ (12–28) region (Fig. 1). Since the binding sites of AChE and HN on Aβ are overlapping, we previously investigated whether HN and AChE can simultaneously bind Aβ [79].

Aβ42 [1] = settings: binds directly to Aβ42; cited from earlier work
Excerpt: Almost all types of cells produce amyloid beta (Aβ), a peptide well recognized for its role in the development and progression of different stages of Alzheimer's disease (AD). The Aβ peptide is ~ 4 kDa and derived from the sequential processing of the higher molecular weight amyloid precursor protein by two membrane‐bound endoproteases, β‐ and γ‐secretase. Different C‐terminal Aβ heterogeneity results from processing by γ‐secretase, where Aβ40 represents the most abundant isoform (~ 90%) as compared to Aβ42 (~ 10%). Self‐assembled Aβ40/42 peptides into amyloid fib ... || Amino acid residues involved in direct interactions between HN and Aβ40 were identified previously by molecular modeling. The specific epitopes at the binding interface between HN and Aβ40 were identified, by proteolytic epitope excision and extraction in addition to affinity–mass spectrometric data analysis, to be HN (5–15) and Aβ (17–28). […] Inhibiting the 17–28 region of Aβ reduced aggregation of the neurotoxic amyloid fibrils and related cytotoxicity in SH‐SY5Y, a human neuroblastoma cell ... || Acetylcholinesterase (AChE) is an enzyme known for its role in terminating acetylcholine‐mediated neurotransmission at the synaptic cleft. The majority of the cortical AChE in the Alzheimer's brain is mainly associated with the amyloid core of senile plaques. […]

AChE-Aβ interaction = settings: cited from earlier work
Excerpt: Access to the central domain of Aβ (residues 17–24) flanked by Lys‐16 and Lys‐28, known to be a critical structural element in fibrillar Aβ aggregates, might be regulated by binding of AChE and HN to their overlapping binding sites on Aβ. […] Moreover, we s ...

Aβ42 [2] = test: ELISA, binding of biotinylated-HN to immobilised Aβ42; settings: Aβ 100 nM on wells, biotinylated-HN 300 nM, increasing HS; three independent assays; Fig. 2B
Description: ELISAs were carried out as we previously reported. Nunc MaxiSorp 96‐well flat bottom plate (Thermo Fisher) wells were coated with samples as indicated. The plates were incubated overnight at 4 °C on a shaker to allow binding of the samples to the plate wells. After the incubation, the wells were washed 4× with TBST, filled with 400 µL blocking buffer (110 mM KCl, 5 mM NaHCO3, 5 mM MgCl2, 1 mM EGTA, 0.1 mM CaCl2, 20 mM HEPES, 1% BSA, pH 7.4), and incubated with shaking overnight at 4 °C. The wells were then washed 4× with TBST, and 100 µL of sample at the desired concentration was added to each well and incubated with shaking overnight at 4 °C. TBST was then used to wash the wells 4× before proceeding in one of two ways: (a) biotinylated samples were analyzed by adding 100 µL streptavidin–HRP conjugate in TBST (1 : 2500 dilution) to the samples followed by incubation for 3 h at RT on a shaker, or (b) samples without biotin were analyzed by adding 100 µL TBST containing the primary antibody as per the manufacturer's recommendation, incubating for 3 h at RT on a shaker, followed by washing the wells 4× with TBST. […] The reaction was stopped with 100 µL 2 M H2SO4 after incubating at RT for 0.5–15 min, resulting in a yellow color change, measured by absorbance at 450 nm. […] Statistical analysis was determined by the […] […] Data were expressed as the mean ± SD. […]

Row | Substance | affinity for Aβ40 (Aβ40) | antioligomeric activity (Aβ42 [1]) | effect of HN on binding of AChE to Aβ (AChE-Aβ interaction) | effect of HS on binding of HN to Aβ42 (Aβ42 [2])
1 | Humanin [HN] | comparable affinities | exhibit antioligomeric activity | it is not abolished | 
2 | heparan sulfate [HS] |  |  |  | No effects
